Laboratory results published in patent publication US20240238242A1, “EGCG buccal tablet and use thereof” (priority 2023, published 2024).
“And” between values parts separate entries of the source, which are not always exact repeats. Equal entries are not always repeated. Where two headings read alike, the source gives them in different places.

Test system: Influenza A virus neuraminidase inhibitor-resistant strain (ZX-1109)
Type: cell-based

For `O=C(O[C@@H]1Cc2c(O)cc(O)cc2O[C@@H]1c1cc(O)c(O)c(O)c1)c1cc(O)c(O)c(O)c1` [EGCG, Epigallocatechin gallate], the “CPE test per cell well” value (0.2 mM EGCG + ZX1109 virus, 1 minute, second experiment, dilution factor 10^1, wells 1-10) was “+”, the “CPE test per cell well” value (0.2 mM EGCG + ZX1109 virus, 1 minute, second experiment, dilution factor 10^2, wells 1-10) was “+” and the “CPE test per cell well” value (0.2 mM EGCG + ZX1109 virus, 1 minute, second experiment, dilution factor 10^3, wells 1-10) was “+”. For the same molecule, the “CPE test per cell well” value (0.2 mM EGCG + ZX1109 virus, 1 minute, second experiment, dilution factor 10^4, wells 1-10) was “+”, the “CPE test per cell well” value (0.2 mM EGCG + ZX1109 virus, 1 minute, second experiment, dilution factor 10^5, wells 1-10) was “+ and −” and the “CPE test per cell well” value (0.2 mM EGCG + ZX1109 virus, 1 minute, second experiment, dilution factor 10^6, wells 1-10) was “−”. For the same molecule, the “CPE test per cell well” value (0.2 mM EGCG + ZX1109 virus, 1 minute, second experiment, dilution factor 10^7, wells 1-10) was “−”, the “CPE test per cell well” value (0.2 mM EGCG + ZX1109 virus, 1 minute, second experiment, dilution factor 10^8, wells 1-10) was “−” and the “CPE test per cell well” value (0.2 mM EGCG + ZX-1109 virus, 1 minute, first experiment, dilution factor 10^1, wells 1-10) was “+”. The “CPE test per cell well” value (0.2 mM EGCG + ZX-1109 virus, 1 minute, first experiment, dilution factor 10^2, wells 1-10) was “+”, the “CPE test per cell well” value (0.2 mM EGCG + ZX-1109 virus, 1 minute, first experiment, dilution factor 10^3, wells 1-10) was “+” and the “CPE test per cell well” value (0.2 mM EGCG + ZX-1109 virus, 1 minute, first experiment, dilution factor 10^4, wells 1-10) was “+”. The “CPE test per cell well” value (0.2 mM EGCG + ZX-1109 virus, 1 minute, first experiment, dilution factor 10^5, wells 1-10) was “+ and −”, the “CPE test per cell well” value (0.2 mM EGCG + ZX-1109 virus, 1 minute, first experiment, dilution factor 10^6, wells 1-10) was “+ and −” and the “CPE test per cell well” value (0.2 mM EGCG + ZX-1109 virus, 1 minute, first experiment, dilution factor 10^7, wells 1-10) was “−”. For the same molecule, the “CPE test per cell well” value (0.2 mM EGCG + ZX-1109 virus, 1 minute, first experiment, dilution factor 10^8, wells 1-10) was “−”, the “CPE test (virus replication in the cell wells)” value (0.2 mM EGCG + ZX-1109 virus, 1 minute, third experiment, dilution factor 10^1, wells 1-10) was “+” and the “CPE test (virus replication in the cell wells)” value (0.2 mM EGCG + ZX-1109 virus, 1 minute, third experiment, dilution factor 10^2, wells 1-10) was “+”. For the same molecule, the “CPE test (virus replication in the cell wells)” value (0.2 mM EGCG + ZX-1109 virus, 1 minute, third experiment, dilution factor 10^3, wells 1-10) was “+”, the “CPE test (virus replication in the cell wells)” value (0.2 mM EGCG + ZX-1109 virus, 1 minute, third experiment, dilution factor 10^4, wells 1-10) was “+” and the “CPE test (virus replication in the cell wells)” value (0.2 mM EGCG + ZX-1109 virus, 1 minute, third experiment, dilution factor 10^5, wells 1-10) was “− and +”. The “CPE test (virus replication in the cell wells)” value (0.2 mM EGCG + ZX-1109 virus, 1 minute, third experiment, dilution factor 10^6, wells 1-10) was “+ and −”, the “CPE test (virus replication in the cell wells)” value (0.2 mM EGCG + ZX-1109 virus, 1 minute, third experiment, dilution factor 10^7, wells 1-10) was “−” and the “CPE test (virus replication in the cell wells)” value (0.2 mM EGCG + ZX-1109 virus, 1 minute, third experiment, dilution factor 10^8, wells 1-10) was “−”. For the same molecule, the “CPE test (virus replication in the cell wells)” value (0.2 mM EGCG + ZX-1109 virus, 5 minute, first experiment, dilution factor 10^1, wells 1-10) was “+”, the “CPE test (virus replication in the cell wells)” value (0.2 mM EGCG + ZX-1109 virus, 5 minute, first experiment, dilution factor 10^2, wells 1-10) was “+” and the “CPE test (virus replication in the cell wells)” value (0.2 mM EGCG + ZX-1109 virus, 5 minute, first experiment, dilution factor 10^3, wells 1-10) was “+”. The “CPE test (virus replication in the cell wells)” value (0.2 mM EGCG + ZX-1109 virus, 5 minute, first experiment, dilution factor 10^4, wells 1-10) was “+”, the “CPE test (virus replication in the cell wells)” value (0.2 mM EGCG + ZX-1109 virus, 5 minute, first experiment, dilution factor 10^5, wells 1-10) was “+” and the “CPE test (virus replication in the cell wells)” value (0.2 mM EGCG + ZX-1109 virus, 5 minute, first experiment, dilution factor 10^6, wells 1-10) was “− and +”. The “CPE test (virus replication in the cell wells)” value (0.2 mM EGCG + ZX-1109 virus, 5 minute, first experiment, dilution factor 10^7, wells 1-10) was “− and +”, the “CPE test (virus replication in the cell wells)” value (0.2 mM EGCG + ZX-1109 virus, 5 minute, first experiment, dilution factor 10^8, wells 1-10) was “− and +” and the “CPE test (virus replication in the cell wells)” value (0.2 mM EGCG + ZX-1109 virus, 5 minute, second experiment, dilution factor 10^1, wells 1-10) was “+”. The “CPE test (virus replication in the cell wells)” value (0.2 mM EGCG + ZX-1109 virus, 5 minute, second experiment, dilution factor 10^2, wells 1-10) was “+”, the “CPE test (virus replication in the cell wells)” value (0.2 mM EGCG + ZX-1109 virus, 5 minute, second experiment, dilution factor 10^3, wells 1-10) was “+” and the “CPE test (virus replication in the cell wells)” value (0.2 mM EGCG + ZX-1109 virus, 5 minute, second experiment, dilution factor 10^4, wells 1-10) was “+”. The “CPE test (virus replication in the cell wells)” value (0.2 mM EGCG + ZX-1109 virus, 5 minute, second experiment, dilution factor 10^5, wells 1-10) was “+ and −”, the “CPE test (virus replication in the cell wells)” value (0.2 mM EGCG + ZX-1109 virus, 5 minute, second experiment, dilution factor 10^6, wells 1-10) was “− and +” and the “CPE test (virus replication in the cell wells)” value (0.2 mM EGCG + ZX-1109 virus, 5 minute, second experiment, dilution factor 10^7, wells 1-10) was “−”. For the same molecule, the “CPE test per cell well” value (0.2 mM EGCG + ZX-1109 virus, 5 minute, third experiment, dilution factor 10^1, wells 1-10) was “+”, the “CPE test per cell well” value (0.2 mM EGCG + ZX-1109 virus, 5 minute, third experiment, dilution factor 10^2, wells 1-10) was “+” and the “CPE test per cell well” value (0.2 mM EGCG + ZX-1109 virus, 5 minute, third experiment, dilution factor 10^3, wells 1-10) was “+”. The “CPE test per cell well” value (0.2 mM EGCG + ZX-1109 virus, 5 minute, third experiment, dilution factor 10^4, wells 1-10) was “+”, the “CPE test per cell well” value (0.2 mM EGCG + ZX-1109 virus, 5 minute, third experiment, dilution factor 10^5, wells 1-10) was “+” and the “CPE test per cell well” value (0.2 mM EGCG + ZX-1109 virus, 5 minute, third experiment, dilution factor 10^6, wells 1-10) was “+ and −”. The “CPE test per cell well” value (0.2 mM EGCG + ZX-1109 virus, 5 minute, third experiment, dilution factor 10^7, wells 1-10) was “+ and −”, the “CPE test per cell well” value (0.2 mM EGCG + ZX-1109 virus, 5 minute, third experiment, dilution factor 10^8, wells 1-10) was “− and +” and the “average inactivation efficiency against virus” value (0.2 mM EGCG, ZX1109 virus, 5 minutes, three experiments) was 92.16%. The “residual virus titer of EGCG+virus group (Karber method)” value (0.2 mM EGCG, ZX-1109 virus, 5 minutes) was 10^7 TCID50/50 μL, the “inactivation efficiency against the virus” value (0.2 mM EGCG, ZX-1109 virus, 5 minutes, single experiment) was 98.42% and 98.00% and 80.05% and the “CPE test per cell well” value (1 mM EGCG + ZX1109 virus, 1 minute, second experiment, dilution factor 10^1, wells 1-10) was “+”. For the same molecule, the “CPE test per cell well” value (1 mM EGCG + ZX1109 virus, 1 minute, second experiment, dilution factor 10^2, wells 1-10) was “+”, the “CPE test per cell well” value (1 mM EGCG + ZX1109 virus, 1 minute, second experiment, dilution factor 10^3, wells 1-10) was “+” and the “CPE test per cell well” value (1 mM EGCG + ZX1109 virus, 1 minute, second experiment, dilution factor 10^4, wells 1-10) was “+”. For the same molecule, the “CPE test per cell well” value (1 mM EGCG + ZX1109 virus, 1 minute, second experiment, dilution factor 10^5, wells 1-10) was “− and +”, the “CPE test per cell well” value (1 mM EGCG + ZX1109 virus, 1 minute, second experiment, dilution factor 10^6, wells 1-10) was “−” and the “CPE test per cell well” value (1 mM EGCG + ZX1109 virus, 1 minute, second experiment, dilution factor 10^7, wells 1-10) was “−”. The “CPE test per cell well” value (1 mM EGCG + ZX1109 virus, 1 minute, second experiment, dilution factor 10^8, wells 1-10) was “−”, the “CPE test per cell well” value (1 mM EGCG + ZX-1109 virus, 1 minute, first experiment, dilution factor 10^1, wells 1-10) was “+” and the “CPE test per cell well” value (1 mM EGCG + ZX-1109 virus, 1 minute, first experiment, dilution factor 10^2, wells 1-10) was “+”. The “CPE test per cell well” value (1 mM EGCG + ZX-1109 virus, 1 minute, first experiment, dilution factor 10^3, wells 1-10) was “+”, the “CPE test per cell well” value (1 mM EGCG + ZX-1109 virus, 1 minute, first experiment, dilution factor 10^4, wells 1-10) was “+” and the “CPE test per cell well” value (1 mM EGCG + ZX-1109 virus, 1 minute, first experiment, dilution factor 10^5, wells 1-10) was “+ and −”. For the same molecule, the “CPE test per cell well” value (1 mM EGCG + ZX-1109 virus, 1 minute, first experiment, dilution factor 10^6, wells 1-10) was “−”, the “CPE test per cell well” value (1 mM EGCG + ZX-1109 virus, 1 minute, first experiment, dilution factor 10^7, wells 1-10) was “−” and the “CPE test per cell well” value (1 mM EGCG + ZX-1109 virus, 1 minute, first experiment, dilution factor 10^8, wells 1-10) was “−”. The “CPE test (virus replication in the cell wells)” value (1 mM EGCG + ZX-1109 virus, 1 minute, third experiment, dilution factor 10^1, wells 1-10) was “+”, the “CPE test (virus replication in the cell wells)” value (1 mM EGCG + ZX-1109 virus, 1 minute, third experiment, dilution factor 10^2, wells 1-10) was “+” and the “CPE test (virus replication in the cell wells)” value (1 mM EGCG + ZX-1109 virus, 1 minute, third experiment, dilution factor 10^3, wells 1-10) was “+”. For the same molecule, the “CPE test (virus replication in the cell wells)” value (1 mM EGCG + ZX-1109 virus, 1 minute, third experiment, dilution factor 10^4, wells 1-10) was “+” and the “CPE test (virus replication in the cell wells)” value (1 mM EGCG + ZX-1109 virus, 1 minute, third experiment, dilution factor 10^5, wells 1-10) was “+ and −”.
